Measurements published in US20250161446A1, “MODIFIED IMMUNE CELLS FOR TREATING AND/OR PREVENTING METASTASIS” (TECHNISCHE UNIVERSITÄT MÜNCHEN, priority 2022, published 2025).

Columns and labels:
[1] = test system: NK cells; assay: NK cell degranulation (LAMP-1 staining) upon anti-NK1.1 stimulation; type: cell-based, mouse; conditions: PGE2 pre-treatment 16 h
Protocol: (§1) For the isolation of mouse NK cells, the spleen was excised from mice and passed through a steel sieve. Red blood cells were lysed by incubating the cells with ammonium chloride potassium buffer for 2 min. Following filtration through a 70 μm cell strainer, CD49b^+ leukocytes were purified by immunomagnetic separation to enrich for CD49b^+ NK cells. Th cells were stained with anti-CD49b FITC, anti-CD3ε PerCP/Cy5.5, anti-CD19 PE/eF610 and CD64 PE/Cy7 for 15 min at 4° C. and NK cells, phenotypically identified as CD49b^+CD3ε^−CD19^−CD64^− cells, were FACS-sorted using a SH800 Cell Sorter. After isolation, NK cells were cultured in low doses of IL2 and IL15/IL15Ra for five days to rest the cells and generate functional NK cells.
(§2) Murine or human NK cells or CD8^+ T cells were treated with 1-100 ng/ml synthetic PGE2 or medium as control for 16 h at 37° C. For experiments with tumor factors (TF), cells were incubated in a 1:1 mixture of complete RPMI medium with TF-containing conditioned medium from cancer cells. For the inhibitor studies, cells were first incubated with single EP receptor inhibitors (EP1-EP4) or inhibitor combinations at a concentration of 5 μM for 30 min, before adding 100 ng/ml PGE2 for 16 h at 37° C. For the RNA and ATAC sequencing approach, NK cells were only pre-treated for 1 h with PGE2 and then stimulated (as described below) for further 4 h. […]

[2] = test system: NK cells; assay: Granzyme B expression in NK cells by flow cytometry; type: cell-based, mouse; conditions: untreated vs PGE2-treated NK cells
Protocol: as §1
Murine or human NK cells or CD8^+ T cells were treated with 1-100 ng/ml synthetic PGE2 or medium as control for 16 h at 37° C. For experiments with tumor factors (TF), cells were incubated in a 1:1 mixture of complete RPMI medium with TF-containing conditioned medium from cancer cells. […]
(§3) For flow cytometric analysis, cells were resuspended in staining buffer containing antibodies for surface molecules and incubated for 15 min. […] Intracellular staining of cytokines (including IFNγ and TNF) was performed in permeabilization buffer and cells were subsequently analyzed by flow cytometry. […]

[3] = test system: BRAF^V600E tumor cells; assay: NK cell cytotoxicity assay (xCelligence impedance); type: cell-based, mouse; conditions: PGE2-treated NK cells co-cultured with tumor cells
Protocol: Measurement of the dynamics of NK cell cytotoxicity against BRAF^V600E tumor cells over time was performed with the impedance-based technology using an xCelligence RTCA MP device (ACEA Biosciences). The xCELLigence RTCA system measures changes in impedance generated by adherence of cells to electrodes on the bottom of the wells of E-Plates and calculates a parameter called Cell Index. For the assays, tumor cells were seeded in 96-well E-plates. After tumor cells reached confluency and a maximum cell index, in vitro cultured NK cells were added in different effector-to-target ratios. Killing was measured by declining cell index values. Percentage of specific cytotoxicity was finally calculated to the index values from tumor cells alone.

[4] = test system: NK cells; assay: Cytokine release assay of mouse NK cells upon anti-NK1.1 stimulation (ELISA, multiplex); type: cell-based
Protocol: as §1
For experiments with tumor factors (TF), cells were incubated in a 1:1 mixture of complete RPMI medium with TF-containing conditioned medium from cancer cells. For the inhibitor studies, cells were first incubated with single EP receptor inhibitors (EP1-EP4) or inhibitor combinations at a concentration of 5 μM for 30 min, before adding 100 ng/ml PGE2 for 16 h at 37° C. For the RNA and ATAC sequencing approach, NK cells were only pre-treated for 1 h with PGE2 and then stimulated (as described below) for further 4 h.
To assess cytokine and chemokine production and degranulation, NK cells were stimulated with plate-bound anti-NK1.1 (PK136), mimicking their activation in metastasis. Human NK cells were activated by incubation with the human […] cell line K562. For analysis of cytokine and chemokine production, Brefeldin A was added 1 h after stimulation to block intracellular protein transport processes. 3 h later, cells were stained for flow cytometric analysis. For analysis of degranulation, stimulation was done in presence of anti-LAMP-1 antibody, and Monensin was added 1 h later to prevent acidification of endolytic vesicles.
To assess the production of cytokines in cell culture supernatants, NK cells were stimulated for 16 h and cell-free supernatants were harvested and stored at −20° C. until further use. Cytokine concentrations in the culture supernatants were measured by enzyme-linked immunosorbent assays (ELISA) or a multiplex cytokine assay (Bio-Plex Pro Mouse Cytokine 23-plex).

[5] = test system: human NK cells; assay: Human NK cell cytokine production upon stimulation with K562 (flow cytometry); type: cell-based; conditions: PGE2 16 h
Source text: (§4) Human NK cells and CD8+ T cells were isolated from blood of healthy, voluntary donors after they gave written and informed consent. Blood was mixed with PBS and loaded on Pancoll to isolate peripheral blood mononuclear cells (PBMCs) through centrifugation. NK cells were then isolated by negative selection using the Untouched Human NK Cell Isolation Kit (ThermoFisher). CD8+ T cells were then isolated by negative selection using the Untouched Human CD8+ T Cell Isolation Kit (Miltenyi).
as §2, with “C.” for “C. For the RNA and ATAC sequencing approach, NK cells were only pre-treated for 1 h with PGE2 and then stimulated (as described below) for further 4 h.”
as §3

[6] = test system: mouse CD8^+ T cells; assay: Mouse CD8^+ T cell expansion after anti-CD3/CD28+IL-12 stimulation; type: cell-based; conditions: PGE2 16 h, expansion 72 h later
Protocol: For the isolation of mouse CD8^+ T cells, the spleen was excised from mice and passed through a steel sieve. Red blood cells were lysed by incubating the cells with ammonium chloride potassium buffer for 2 min. Following filtration through a 70 μm cell strainer, CD8^+ T cells were purified by immunomagnetic separation using anti-CD8 microbeads. After isolation, CD8^+ T cells were cultured with low dose IL2 and CD3/CD28 stimulatory beads to generate effector-like CD8+ T cells for in vitro assays.
as §2, with “C.” for “C. For the RNA and ATAC sequencing approach, NK cells were only pre-treated for 1 h with PGE2 and then stimulated (as described below) for further 4 h.”
(§5) To assess T cell differentiation and expansion, CD8^+ T cells were stimulated with anti-CD3/CD28 microbeads plus Interleukin-12 (10 ng/ml), mimicking their activation in metastasis or tumor tissue, and cell numbers were quantified 72 h later by flow cytometry.

[7] = test system: human CD8^+ T cells; assay: Human CD8^+ T cell expansion after anti-CD3/CD28+IL-12 stimulation; type: cell-based; conditions: PGE2 16 h, expansion 72 h later
Source text: as §4
Murine or human NK cells or CD8^+ T cells were treated with 1-100 ng/ml synthetic PGE2 or medium as control for 16 h at 37° C. For experiments with tumor factors (TF), cells were incubated in a 1:1 mixture of complete RPMI medium with TF-containing conditioned medium from cancer cells. For the inhibitor studies, cells were first incubated with single EP receptor inhibitors (EP1-EP4) or inhibitor combinations at a concentration of 5 μM for 30 min, before adding 100 ng/ml PGE2 for 16 h at 37° C. For the RNA and ATAC sequencing approach, NK cells were only pre-treated for 1 h with PGE2 and then stimulated (as described below) for further 4 h.
as §5

[8] = anti-NK1.1 stimulation in presence of PGE2

For `CCCCC[C@H](O)/C=C/[C@H]1[C@H](O)CC(=O)[C@@H]1C/C=C\CCCC(=O)O` [PGE2, prostaglandin E2], the “degranulation (LAMP-1 staining) of NK cells” value [1] was “only slightly reduced”, the “granzyme B levels in NK cells” value [2] was “unaffected” and the “NK cell mediated killing of tumor cells” value [3] was “effectively eliminate the tumor cells”. The “XCL1 secretion after transient PGE2 treatment” value ([4]; PGE2 24 h, then removed for 24 h before anti-NK1.1 stimulation) was “strong inhibitory effects”, the “IFNγ release by NK cells” value [4, 8] was “markedly reduced in a dose-dependent manner” and the “XCL1 release by NK cells” value [4, 8] was “markedly reduced in a dose-dependent manner”. The “secretion of other effector cytokines, chemokines and growth factors by NK cells” value ([4]; upon stimulation, multiplex assay) was “diminished the secretion”, the “cytokine and chemokine production (IFNγ, TNF, XCL1) by human NK cells” value [5] was “impaired the cytokine and chemokine production” and the “expansion of mouse CD8^+ T cells upon stimulation” value [6] was “strongly impaired”. The “expansion of human CD8^+ T cells upon stimulation” value [7] was “Identical findings”.
